Experiments:
Escherichia coli [1] = assay: Antimicrobial activity against verona integron-encoded metallo-beta-lactamase-29-producing Escherichia coli 50639799 assessed as reduction in bacterial growth incubated for 48 hrs by microdilution method; type: functional
Staphylococcus aureus [2] = assay: Antimicrobial activity against extended spectrum-lactamase-carbapenemas producing Staphylococcus aureus strain 85/2082 assessed as reduction in bacterial growth incubated for 48 hrs by microdilution method; type: functional
Escherichia coli [3] = assay: Antimicrobial activity against New Delhi metallo-beta lactamase-1 producing Escherichia coli 50739822 assessed as reduction in bacterial growth incubated for 48 hrs by microdilution method; type: functional
Escherichia coli [4] = assay: Antimicrobial activity against oxacillinase-producing Escherichia coli 50579417 assessed as reduction in bacterial growth incubated for 48 hrs by microdilution method; type: functional
Pseudomonas aeruginosa [5] = assay: Antimicrobial activity against verona integron-encoded metallo-beta-lactamase producing Pseudomonas aeruginosa 50692520 assessed as reduction in bacterial growth incubated for 48 hrs by microdilution method; type: functional
Staphylococcus aureus [6] = assay: Antimicrobial activity against Staphylococcus aureus ATCC 9144 assessed as reduction in bacterial growth incubated for 48 hrs by microdilution susceptibility test; type: functional
[7] = Antimicrobial activity against New Delhi metallo-beta lactamase-1 Klebsiella pneumoniae K66-45 assessed as reduction in bacterial growth incubated for 48 hrs by microdilution method; type: functional
[8] = Antimicrobial activity against verona integron-encoded metallo-beta-lactamase -1 producing Klebsiella pneumoniae 50667959 assessed as reduction in bacterial growth incubated for 48 hrs by microdilution method; type: functional
Acinetobacter baumannii [9] = assay: Antimicrobial activity against oxacillinase-23 producing Acinetobacter baumannii K63-58 assessed as reduction in bacterial growth incubated for 48 hrs by microdilution method; type: functional
Staphylococcus aureus [10] = assay: Antimicrobial activity against extended spectrum-lactamase-carbapenemas producing Staphylococcus aureus NCTC 10442 assessed as reduction in bacterial growth incubated for 48 hrs by microdilution method; type: functional
Acinetobacter baumannii [11] = assay: Antimicrobial activity against oxacillinase-58 producing Acinetobacter baumannii K12-21 assessed as reduction in bacterial growth incubated for 48 hrs by microdilution method; type: functional
[12] = Antimicrobial activity against New Delhi metallo-beta lactamase-1 and oxacillinase -181 producing Klebsiella pneumoniae 50531633 assessed as reduction in bacterial growth incubated for 48 hrs by microdilution method; type: functional
Pseudomonas aeruginosa [13] = assay: Antimicrobial activity against verona integron-encoded metallo-beta-lactamase-2 producing Pseudomonas aeruginosa K34-7 assessed as reduction in bacterial growth incubated for 48 hrs by microdilution method; type: functional
[14] = Antimicrobial activity against oxacillinase-245 producing Klebsiella pneumoniae 50625602 assessed as reduction in bacterial growth incubated for 48 hrs by microdilution method; type: functional
Escherichia coli [15] = assay: Antimicrobial activity against Escherichia coli ATCC 25922 assessed as reduction in bacterial growth incubated for 48 hrs by microdilution susceptibility test; type: functional
Pseudomonas aeruginosa [16] = assay: Antimicrobial activity against New Delhi metallo-beta lactamase-1 producing Pseudomonas aeruginosa 50692172 assessed as reduction in bacterial growth incubated for 48 hrs by microdilution method; type: functional
Pseudomonas aeruginosa [17] = assay: Antimicrobial activity against imipenem-type carbapenemase-14 producing Pseudomonas aeruginosa K44-24 assessed as reduction in bacterial growth incubated for 48 hrs by microdilution method; type: functional
Enterococcus faecium [18] = assay: Antimicrobial activity against extended spectrum-lactamase-carbapenemas producing Enterococcus faecium strain K36-18 assessed as reduction in bacterial growth incubated for 48 hrs by microdilution method; type: functional
Escherichia coli [19] = assay: Antimicrobial activity against imipenem-type carbapenemase-26 producing Escherichia coli 50857972 assessed as reduction in bacterial growth incubated for 48 hrs by microdilution method; type: functional
Escherichia coli [20] = assay: Antimicrobial activity against New Delhi metallo-beta lactamase-1 producing Escherichia coli 50676002 assessed as reduction in bacterial growth incubated for 48 hrs by microdilution method; type: functional
Pseudomonas aeruginosa [21] = assay: Antimicrobial activity against Pseudomonas aeruginosa PAO1 assessed as reduction in bacterial growth incubated for 48 hrs by microdilution susceptibility test; type: functional
[22] = tested on: Corynebacterium glutamicum; assay: Antimicrobial activity against Corynebacterium glutamicum ATCC 13032 assessed as reduction in bacterial growth incubated for 48 hrs by microdilution susceptibility test; type: functional
MRC5 = assay: Cytotoxicity against human MRC5 cells assessed as reduction in cell viability incubated for 24 hrs by colorimetric tetrazolium assay; type: functional, cell-based; conditions: MRC5, 24 h
HepG2 = assay: Cytotoxicity against human HepG2 cells assessed as reduction in cell viability incubated for 24 hrs by colorimetric tetrazolium assay; type: functional, cell-based; conditions: HepG2, 24 h
Staphylococcus aureus [23] = assay: Antimicrobial activity against extended spectrum-lactamase-carbapenemas producing Staphylococcus aureus N315 assessed as reduction in bacterial growth incubated for 48 hrs by microdilution method; type: functional
Pseudomonas aeruginosa [24] = assay: Antimicrobial activity against verona integron-encoded metallo-beta-lactamase-4 producing Pseudomonas aeruginosa K34-73 assessed as reduction in bacterial growth incubated for 48 hrs by microdilution method; type: functional
Enterococcus faecium [25] = assay: Antimicrobial activity against extended spectrum-lactamase-carbapenemas producing Enterococcus faecium strain 50673722 assessed as reduction in bacterial growth incubated for 48 hrs by microdilution method; type: functional
Enterococcus faecium [26] = assay: Antimicrobial activity against extended spectrum-lactamase-carbapenemas producing Enterococcus faecium strain 50901530 assessed as reduction in bacterial growth incubated for 48 hrs by microdilution method; type: functional
[27] = Hemolytic activity in human erythrocytes incubated for 1 hr by microplate reader; type: functional, cell-based; conditions: erythrocyte
Acinetobacter baumannii [28] = assay: Antimicrobial activity against oxacillinase-24 producing Acinetobacter baumannii K55-13 assessed as reduction in bacterial growth incubated for 48 hrs by microdilution method; type: functional
Staphylococcus aureus [29] = assay: Antimicrobial activity against extended spectrum-lactamase-carbapenemas producing Staphylococcus aureus strain IHT 99040 assessed as reduction in bacterial growth incubated for 48 hrs by microdilution method; type: functional
Acinetobacter baumannii [30] = assay: Antimicrobial activity against oxacillinase-23 producing Acinetobacter baumannii K47-42 assessed as reduction in bacterial growth incubated for 48 hrs by microdilution method; type: functional
[31] = Antimicrobial activity against carbapenemase producing Klebsiella pneumoniae K47-25 assessed as reduction in bacterial growth incubated for 48 hrs by microdilution method; type: functional
Staphylococcus aureus [32] = assay: Antimicrobial activity against extended spectrum-lactamase-carbapenemas producing Staphylococcus aureus strain WIS assessed as reduction in bacterial growth incubated for 48 hrs by microdilution method; type: functional
Enterococcus faecium [33] = assay: Antimicrobial activity against extended spectrum-lactamase-carbapenemas producing Enterococcus faecium strain 50758899 assessed as reduction in bacterial growth incubated for 48 hrs by microdilution method; type: functional
Enterococcus faecium [34] = assay: Antimicrobial activity against extended spectrum-lactamase-carbapenemas producing Enterococcus faecium strain TUH.50-22 assessed as reduction in bacterial growth incubated for 48 hrs by microdilution method; type: functional
Acinetobacter baumannii [35] = assay: Antimicrobial activity against oxacillinase-23 producing Acinetobacter baumannii K44-35 assessed as reduction in bacterial growth incubated for 48 hrs by microdilution method; type: functional

Compound | MIC (Escherichia coli [1]) | MIC (Staphylococcus aureus [2]) | MIC (Escherichia coli [3]) | MIC (Escherichia coli [4]) | MIC (Pseudomonas aeruginosa [5]) | MIC (Staphylococcus aureus [6]) | MIC [7] | MIC [8] | MIC (Acinetobacter baumannii [9]) | MIC (Staphylococcus aureus [10]) | MIC (Acinetobacter baumannii [11]) | MIC [12] | MIC (Pseudomonas aeruginosa [13]) | MIC [14] | MIC (Escherichia coli [15]) | MIC (Pseudomonas aeruginosa [16]) | MIC (Pseudomonas aeruginosa [17]) | MIC (Enterococcus faecium [18]) | MIC (Escherichia coli [19]) | MIC (Escherichia coli [20]) | other results
NCCCCN1C(=O)N(CCCCN)C(=O)C(Cc2ccc(F)c3ccccc23)(Cc2ccc(F)c3ccccc23)C1=O.O=C(O)C(F)(F)F.O=C(O)C(F)(F)F | 16 µg/mL | 4 µg/mL | 16 µg/mL | 16 µg/mL | 16 µg/mL | 4 µg/mL | 32 µg/mL | 32 µg/mL | 16 µg/mL | 8 µg/mL | 32 µg/mL | 16 µg/mL | 32 µg/mL | 32 µg/mL | 16 µg/mL | 16 µg/mL | 32 µg/mL | 8 µg/mL | 16 µg/mL | 16 µg/mL | MIC (Pseudomonas aeruginosa [21]): 8 µg/mL; MIC [22]: 1 µg/mL; IC50 (MRC5): 2 µg/mL; IC50 (HepG2): 5 µg/mL; MIC (Staphylococcus aureus [23]): 8 µg/mL; MIC (Pseudomonas aeruginosa [24]): 32 µg/mL; MIC (Enterococcus faecium [25]): 8 µg/mL; MIC (Enterococcus faecium [26]): 4 µg/mL; EC50 [27]: 160 µg/mL; MIC (Acinetobacter baumannii [28]): 32 µg/mL; MIC (Staphylococcus aureus [29]): 8 µg/mL; MIC (Acinetobacter baumannii [30]): 32 µg/mL; MIC [31]: > 32 µg/mL; MIC (Staphylococcus aureus [32]): 8 µg/mL; MIC (Enterococcus faecium [33]): 8 µg/mL; MIC (Enterococcus faecium [34]): 4 µg/mL; MIC (Acinetobacter baumannii [35]): 32 µg/mL
N=C(N)NCCCCN1C(=O)N(CCCCNC(=N)N)C(=O)C(Cc2cc(C(F)(F)F)cc(C(F)(F)F)c2)(Cc2cc(C(F)(F)F)cc(C(F)(F)F)c2)C1=O.O=C(O)C(F)(F)F.O=C(O)C(F)(F)F | 4 µg/mL | 2 µg/mL | 8 µg/mL | 8 µg/mL | 16 µg/mL | 2 µg/mL | 16 µg/mL | 16 µg/mL | 16 µg/mL | 2 µg/mL | 16 µg/mL | 16 µg/mL | 16 µg/mL | 8 µg/mL | 2 µg/mL | 16 µg/mL | 16 µg/mL | 4 µg/mL | 4 µg/mL | 4 µg/mL | MIC (Pseudomonas aeruginosa [21]): 8 µg/mL; MIC [22]: 2 µg/mL; IC50 (MRC5): 29 µg/mL; IC50 (HepG2): 19 µg/mL; MIC (Staphylococcus aureus [23]): 2 µg/mL; MIC (Pseudomonas aeruginosa [24]): 16 µg/mL; MIC (Enterococcus faecium [25]): 2 µg/mL; MIC (Enterococcus faecium [26]): 2 µg/mL; EC50 [27]: 98 µg/mL; MIC (Acinetobacter baumannii [28]): 16 µg/mL; MIC (Staphylococcus aureus [29]): 2 µg/mL; MIC (Acinetobacter baumannii [30]): 16 µg/mL; MIC [31]: 16 µg/mL; MIC (Staphylococcus aureus [32]): 2 µg/mL; MIC (Enterococcus faecium [33]): 4 µg/mL; MIC (Enterococcus faecium [34]): 2 µg/mL; MIC (Acinetobacter baumannii [35]): 16 µg/mL

Reference: ChEMBL document CHEMBL5055633, “Amphipathic Barbiturates as Mimics of Antimicrobial Peptides and the Marine Natural Products Eusynstyelamides with Activity against Multi-resistant Clinical Isolates” (J Med Chem, 2021)
